≈ marks a conversion by molar mass, not a printed value. Blank lines part the entries; values can stand above or below the compound they belong to. Calls of active or inactive are those of the source. The rule behind the calls is not given here. Peptide text beside a SMILES is read from it. * marks the point of attachment. Decanoyl = CCCCCCCCCC(=O)*; Hexanoyl = CCCCCC(=O)*; Butyryl = CCCC(=O)*
Experiments:
Cell membrane = assay: Induction of inner membrane permeabilization in Escherichia coli at 0.5 to 1 times MIC measured for 135 mins by absorbance based analysis
Staphylococcus aureus = assay: Antibacterial activity against Staphylococcus aureus ATCC 25923 assessed as reduction in bacterial growth incubated for 18 to 24 hrs by broth microdilution method; assay type: functional; settings: time 18-24 hrs
Acinetobacter baumannii = assay: Antibacterial activity against Acinetobacter baumannii ATCC 19606 assessed as reduction in bacterial growth incubated for 18 to 24 hrs by broth microdilution method; assay type: functional; settings: time 18-24 hrs
[1] = test system: Staphylococcus epidermidis; assay: Antibacterial activity against Staphylococcus epidermidis ATCC 12228 assessed as reduction in bacterial growth incubated for 18 to 24 hrs by broth microdilution method; assay type: functional; settings: time 18-24 hrs
Bacillus subtilis = assay: Antibacterial activity against Bacillus subtilis ATCC 23857 assessed as reduction in bacterial growth incubated for 18 to 24 hrs by broth microdilution method; assay type: functional; settings: time 18-24 hrs
Klebsiella pneumoniae = assay: Antibacterial activity against Klebsiella pneumoniae ATCC 700603 assessed as reduction in bacterial growth incubated for 18 to 24 hrs by broth microdilution method; assay type: functional; settings: time 18-24 hrs
Pseudomonas aeruginosa = assay: Antibacterial activity against Pseudomonas aeruginosa ATCC 27853 assessed as reduction in bacterial growth incubated for 18 to 24 hrs by broth microdilution method; assay type: functional; settings: time 18-24 hrs
Escherichia coli = assay: Antibacterial activity against Escherichia coli ATCC 25922 assessed as reduction in bacterial growth incubated for 18 to 24 hrs by broth microdilution method; assay type: functional; settings: time 18-24 hrs
Enterococcus faecalis = assay: Antibacterial activity against Enterococcus faecalis ATCC 29212 assessed as reduction in bacterial growth incubated for 18 to 24 hrs by broth microdilution method; assay type: functional; settings: time 18-24 hrs

MIC (Staphylococcus aureus): 16 µM (≈ 17.3 µg/mL)
MIC (Acinetobacter baumannii): 16 µM (≈ 17.3 µg/mL)
MIC [1]: 8 µM (≈ 8.66 µg/mL)
MIC (Bacillus subtilis): 8 µM (≈ 8.66 µg/mL)
MIC (Klebsiella pneumoniae): 128 µM (≈ 139 µg/mL)
MIC (Pseudomonas aeruginosa): 16 µM (≈ 17.3 µg/mL)
MIC (Escherichia coli): 16 µM (≈ 17.3 µg/mL)
MIC (Enterococcus faecalis): 16 µM (≈ 17.3 µg/mL)
SMILES: CCCCCCCCCC(=O)NCCCC[C@H](NC(=O)CCCCCCCCC)C(=O)N[C@@H](CCCCN)C(=O)N[C@@H](CCCCN)C(=O)N[C@@H](Cc1c[nH]c2ccccc12)C(=O)N[C@@H](Cc1c[nH]c2ccccc12)C(N)=O (Decanoyl-K(Decanoyl)KKWW-NH2)

MIC (Staphylococcus aureus): 16 µM (≈ 12.8 µg/mL)
MIC (Acinetobacter baumannii): 32 µM (≈ 25.6 µg/mL)
MIC [1]: 16 µM (≈ 12.8 µg/mL)
MIC (Bacillus subtilis): 4 µM (≈ 3.2 µg/mL)
MIC (Klebsiella pneumoniae): 32 µM (≈ 25.6 µg/mL)
MIC (Pseudomonas aeruginosa): 8 µM (≈ 6.4 µg/mL)
MIC (Escherichia coli): 16 µM (≈ 12.8 µg/mL)
MIC (Enterococcus faecalis): 32 µM (≈ 25.6 µg/mL)
SMILES: CCCCCCCCCC(=O)N[C@@H](CCCCN)C(=O)N[C@@H](CCCCN)C(=O)N[C@@H](Cc1c[nH]c2ccccc12)C(=O)N[C@@H](Cc1c[nH]c2ccccc12)C(N)=O (Decanoyl-KKWW-NH2)

Second part, the compound before the results:

SMILES: CC(C)(C)CC(C)(C)c1ccc(OCCO)cc1
Activity (Cell membrane): Active

SMILES: CCCC(=O)NCCCC[C@H](NC(=O)CCC)C(=O)N[C@@H](CCCCN)C(=O)N[C@@H](CCCCN)C(=O)N[C@@H](Cc1c[nH]c2ccccc12)C(=O)N[C@@H](Cc1c[nH]c2ccccc12)C(N)=O (Butyryl-K(Butyryl)KKWW-NH2)
MIC (Staphylococcus aureus): 128 µM (≈ 117 µg/mL)
MIC (Acinetobacter baumannii): 128 µM (≈ 117 µg/mL)
MIC [1]: 128 µM (≈ 117 µg/mL)
MIC (Bacillus subtilis): 128 µM (≈ 117 µg/mL)
MIC (Klebsiella pneumoniae): 128 µM (≈ 117 µg/mL)
MIC (Pseudomonas aeruginosa): 128 µM (≈ 117 µg/mL)
MIC (Escherichia coli): 128 µM (≈ 117 µg/mL)
MIC (Enterococcus faecalis): 128 µM (≈ 117 µg/mL)

SMILES: CCCC(=O)N[C@@H](CCCCN)C(=O)N[C@@H](CCCCN)C(=O)N[C@@H](Cc1c[nH]c2ccccc12)C(=O)N[C@@H](Cc1c[nH]c2ccccc12)C(N)=O (Butyryl-KKWW-NH2)
MIC (Staphylococcus aureus): 128 µM (≈ 91.6 µg/mL)
MIC (Acinetobacter baumannii): 128 µM (≈ 91.6 µg/mL)
MIC [1]: 128 µM (≈ 91.6 µg/mL)
MIC (Bacillus subtilis): 128 µM (≈ 91.6 µg/mL)
MIC (Klebsiella pneumoniae): 128 µM (≈ 91.6 µg/mL)
MIC (Pseudomonas aeruginosa): 128 µM (≈ 91.6 µg/mL)
MIC (Escherichia coli): 128 µM (≈ 91.6 µg/mL)
MIC (Enterococcus faecalis): 128 µM (≈ 91.6 µg/mL)

SMILES: CCCCCC(=O)NCCCC[C@H](NC(=O)CCCCC)C(=O)N[C@@H](CCCCN)C(=O)N[C@@H](CCCCN)C(=O)N[C@@H](Cc1c[nH]c2ccccc12)C(=O)N[C@@H](Cc1c[nH]c2ccccc12)C(N)=O (Hexanoyl-K(Hexanoyl)KKWW-NH2)
MIC (Staphylococcus aureus): 128 µM (≈ 124 µg/mL)
MIC (Acinetobacter baumannii): 128 µM (≈ 124 µg/mL)
MIC [1]: 128 µM (≈ 124 µg/mL)
MIC (Bacillus subtilis): 64 µM (≈ 62.1 µg/mL)
MIC (Klebsiella pneumoniae): 128 µM (≈ 124 µg/mL)
MIC (Pseudomonas aeruginosa): 64 µM (≈ 62.1 µg/mL)
MIC (Escherichia coli): 128 µM (≈ 124 µg/mL)
MIC (Enterococcus faecalis): 128 µM (≈ 124 µg/mL)

SMILES: CCCCCC(=O)N[C@@H](CCCCN)C(=O)N[C@@H](CCCCN)C(=O)N[C@@H](Cc1c[nH]c2ccccc12)C(=O)N[C@@H](Cc1c[nH]c2ccccc12)C(N)=O (Hexanoyl-KKWW-NH2)
MIC (Staphylococcus aureus): 128 µM (≈ 95.2 µg/mL)
MIC (Acinetobacter baumannii): 128 µM (≈ 95.2 µg/mL)
MIC [1]: 128 µM (≈ 95.2 µg/mL)
MIC (Bacillus subtilis): 128 µM (≈ 95.2 µg/mL)
MIC (Klebsiella pneumoniae): 128 µM (≈ 95.2 µg/mL)
MIC (Pseudomonas aeruginosa): 128 µM (≈ 95.2 µg/mL)
MIC (Escherichia coli): 128 µM (≈ 95.2 µg/mL)
MIC (Enterococcus faecalis): 128 µM (≈ 95.2 µg/mL)

Reference: ChEMBL document CHEMBL6114980, “Single or double lipid-modified ultra-short antimicrobial peptides for treating infections caused by resistant bacteria” (Eur J Med Chem, 2025)
